The text below walks through data of PubChem BioAssay (NCI).

Test systems include UACC-257 melanoma; HS 578T breast; SF-268 CNS; HOP-62 NSCLC; MDA-MB-231 breast; SNB-19 CNS; TK-10 renal; BT-549 breast.
Common to all, as to assay: inhibition of tumour cell growth, NCI panel, 48 h

The structures appear in SMILES notation.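 1) Cells in 96-well plates. 2) Compound, 48 h, 5 concentrations. 3) Linear interpolation between surrounding doses. 4) Unreached endpoint = highest concentration. GI50 marks 50% less growth. TGI denotes the concentration required for complete inhibition of growth.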

`Cc1c(Sc2ccccc2)[n+](=O)c2cc(Cl)c(Cl)cc2n1[O-]`: the GI50 in the test with UACC-257 melanoma was 16 µM; with HS 578T breast, > 100 µM; in the test on SF-268 CNS, > 100 µM; with HOP-62 NSCLC it was > 100 µM; in the test on MDA-MB-231 breast, 35.7 µM; with SNB-19 CNS, > 100 µM. Also, the GI50 was 26.1 µM in the test with TK-10 renal and 27.8 µM in the test with BT-549 breast. In addition, the TGI with UACC-257 melanoma is 44.6 µM; with HS 578T breast, > 100 µM; in the test with SF-268 CNS, > 100 µM; in the test with HOP-62 NSCLC it was > 100 µM; in the test on MDA-MB-231 breast, > 100 µM; in the test with SNB-19 CNS it was > 100 µM. Also, the TGI is 70.6 µM with TK-10 renal and 58.9 µM with BT-549 breast.

Consider `ClCc1ccc(Cn2cnc3c(Cl)nc(Cl)nc32)cc1`, for which the GI50 in the test with UACC-257 melanoma is 16.3 µM; in the test on HS 578T breast, 2.13 µM; in the test on SF-268 CNS, 2.51 µM; in the test on HOP-62 NSCLC it was 2.19 µM; in the test with MDA-MB-231 breast, 1.81 µM; in the test on SNB-19 CNS it was 2.5 µM. For the same compound, the figures for the GI50 in the test with TK-10 renal and in the test with BT-549 breast were 6.68 µM and 15.8 µM, respectively. Moreover, the TGI in the test with UACC-257 melanoma came out at 33.5 µM; in the test on HS 578T breast, 5.77 µM; with SF-268 CNS it was 5.42 µM; with HOP-62 NSCLC it was 5.09 µM; with MDA-MB-231 breast it was 3.63 µM; in the test on SNB-19 CNS, 7.04 µM. For the same compound, the TGI was found to be 20.3 µM in the test on TK-10 renal and 29.8 µM with BT-549 breast.

For `COc1cc2c3c(n(CCCN=[N+]=[N-])c(=O)c2cc1OC)-c1ccc(N(C)C)cc1C3=O`, the GI50 with UACC-257 melanoma, with HS 578T breast, in the test with SF-268 CNS, with HOP-62 NSCLC, in the test on MDA-MB-231 breast and in the test on SNB-19 CNS was > 100 µM in each case. Also, the GI50 with TK-10 renal and in the test with BT-549 breast was > 100 µM in each case. Also, the TGI with UACC-257 melanoma, in the test on HS 578T breast, in the test on SF-268 CNS, in the test on HOP-62 NSCLC, in the test on MDA-MB-231 breast and in the test on SNB-19 CNS was > 100 µM each time. In addition, the TGI in the test with TK-10 renal and in the test on BT-549 breast was > 100 µM throughout.

For the compound `Clc1nc(Cl)c2ncn(Cc3ccc(Cn4cnc5c(Cl)nc(Cl)nc54)cc3)c2n1`, the GI50 in the test on UACC-257 melanoma was 4.87 µM; with SF-268 CNS it was 3.4 µM; with HOP-62 NSCLC, 6.73 µM; with MDA-MB-231 breast, 3.23 µM; in the test on SNB-19 CNS, 76.2 µM; in the test on TK-10 renal, 15.6 µM. For the same compound, the TGI in the test with UACC-257 melanoma is 30.5 µM; in the test with HS 578T breast it was > 40.2 µM; with SF-268 CNS it was 23.4 µM; in the test with HOP-62 NSCLC, 21.5 µM; in the test with MDA-MB-231 breast, 22.4 µM; with SNB-19 CNS, > 100 µM. In addition, the TGI in the test with TK-10 renal came out at 35.2 µM; in the test with BT-549 breast, 18.9 µM.

As to `C=C1c2c(Cl)ccc(O)c2C(O)=C2C(=O)[C@]3(O)C(O)=C(C(N)=O)C(=O)[C@@H](N(C)C)[C@@H]3[C@@H](O)[C@H]12`, the GI50 in the test on UACC-257 melanoma is 0.888 µM; in the test with HS 578T breast it was 1.24 µM; in the test on SF-268 CNS it was 1.41 µM; in the test with HOP-62 NSCLC, 0.984 µM; with MDA-MB-231 breast, 1.07 µM; in the test on SNB-19 CNS, 1.44 µM. For the same compound, the GI50 is 0.656 µM in the test with TK-10 renal and 1.07 µM in the test on BT-549 breast. Further, the TGI in the test with UACC-257 melanoma is 3.61 µM; in the test with HS 578T breast, 9.68 µM; in the test with SF-268 CNS, 7.16 µM; in the test with HOP-62 NSCLC, 3.1 µM; in the test on MDA-MB-231 breast, 2.93 µM; in the test on SNB-19 CNS, > 50 µM. Further, the TGI in the test with TK-10 renal was determined as 3.41 µM; in the test on BT-549 breast, 3.24 µM.

On to `CC(Br)C(=O)Nc1ccc(C(=O)O)c(O)c1` (stereo not given), for which the TGI with UACC-257 melanoma, with HS 578T breast, with SF-268 CNS, in the test with HOP-62 NSCLC, in the test on MDA-MB-231 breast and in the test with SNB-19 CNS was > 100 µM each time. Also, the TGI in the test with TK-10 renal and with BT-549 breast was > 100 µM in each case.

Consider `O=S(=O)(NCCNc1nccc(-c2c(-c3ccc(F)cc3)nc3sccn23)n1)c1ccccc1`, for which the GI50 in the test with UACC-257 melanoma was 10.6 µM; in the test on HS 578T breast, 13.6 µM; in the test on SF-268 CNS, 6.63 µM; in the test with HOP-62 NSCLC, 26.4 µM; in the test with MDA-MB-231 breast it was 16.6 µM; with SNB-19 CNS, 9.88 µM. Besides, the GI50 in the test on TK-10 renal was 9.41 µM. The TGI in the test with UACC-257 melanoma was 72.8 µM; in the test with HS 578T breast it was > 100 µM; in the test with SF-268 CNS, > 100 µM; in the test with HOP-62 NSCLC, > 100 µM; with MDA-MB-231 breast, > 100 µM; in the test with SNB-19 CNS, > 100 µM. In the test on TK-10 renal, this compound had a TGI of 73.5 µM.

On to `NCCSCCc1ccccc1`, for which the TGI in the test with UACC-257 melanoma, in the test on HS 578T breast, with SF-268 CNS, in the test with HOP-62 NSCLC, in the test with MDA-MB-231 breast and in the test on SNB-19 CNS was > 100 µM each time. For the same compound, the TGI in the test on TK-10 renal and in the test on BT-549 breast was > 100 µM each time.

Consider `CO[C@H]1CC(c2ccc[nH]2)=N[C@]12O[C@@H](C)C[C@@H]1CCCCCCCc3ccc([nH]3)[C@H]12`, for which the GI50 in the test on UACC-257 melanoma was 1.33 µM; in the test on HS 578T breast it was 0.888 µM; in the test on SF-268 CNS, 1.65 µM; in the test with HOP-62 NSCLC, 1.35 µM; in the test on MDA-MB-231 breast it was 0.853 µM; in the test on SNB-19 CNS it was 3.41 µM. The GI50 with TK-10 renal was 2.33 µM; in the test on BT-549 breast, 1.21 µM. Moreover, the TGI is 7.63 µM in the test on UACC-257 melanoma; 7.11 µM in the test on HS 578T breast; > 32.2 µM in the test with SF-268 CNS; 14.9 µM with HOP-62 NSCLC; 5.23 µM with MDA-MB-231 breast; > 33.3 µM in the test with SNB-19 CNS. Further, the TGI is > 29.6 µM in the test on TK-10 renal and 9.31 µM in the test with BT-549 breast.

`Oc1ccc(Cl)cc1CNc1nc2ccccc2[nH]1`: the GI50 was 14.7 µM in the test on UACC-257 melanoma; 13.6 µM in the test with HS 578T breast; 14.3 µM in the test with SF-268 CNS; 11.8 µM with HOP-62 NSCLC; 8.31 µM in the test on MDA-MB-231 breast; 14.4 µM with SNB-19 CNS. Moreover, the GI50 is 15.7 µM in the test on TK-10 renal and 9.05 µM in the test with BT-549 breast. Besides, the TGI in the test on UACC-257 melanoma amounted to 29.4 µM; in the test on HS 578T breast it was 42.1 µM; with SF-268 CNS, 30.2 µM; in the test on HOP-62 NSCLC, 27.2 µM; with MDA-MB-231 breast it was 22.4 µM; in the test on SNB-19 CNS it was 40.3 µM. Further, the TGI with TK-10 renal came to 31.2 µM; with BT-549 breast, 23.3 µM.
